This is an account of results in patent publication US20180209956A1, “HTS Assay for Identifying Small Molecule Inhibitors of RAD52 and Uses of Identified Small Molecule Inhibitors for Treatment and Prevention of BRCA-Deficient Malignancies” (University of Iowa Research Foundation, priority 2015, published 2018).

The test system of assay [1] is GM01604 cells. The assay can be described thus: LIVE/DEAD cell viability assay. The following applies: for Dead cells: MUS81-depleted cells. Format: cell-based, human. The method, then: Cell Viability Live/Dead Assays: GM01604 cells were transfected with siRNAs directed against GFP (Ctrl), or against MUS81 (Qiagen), BRCA2 (Sigma-Aldrich), and RAD52 (Qiagen) 48 hours prior to addition of 1 μM ‘1’. Where indicated, the conditions of pathological replication were induced by treating cells with 2 mM HU and 300 nM UCN01 for 6 h or by a 18 hours treatment with 2 mM HU, in the presence or absence of ‘1’. Viability was evaluated by the LIVE/DEAD assay (Sigma-Aldrich) according to the manufacturer's instructions. Cell number was counted in randomly chosen fields and expressed as percent of dead cells (number of red nuclear stained cells divided by the total cell number) corrected for the cell loss observed in the population. For each time point, at least 200 cells were counted.

Assay [2] concerns GM01604 cells. The experiment in a line: Anaphase bridges after aphidicolin (MUS81 activity). Format: cell-based, human. The settings on record: aphidicolin 24 h, increasing concentration of compound. The protocol: Forty eight hours after transfection the fibroblasts were lysed and analysed by WB with the indicated antibodies. b) Forty eight hours after transfection, GM01604 cells were exposed to […] aphidicolin (APH) for 24 h in the presence (grey bars) or absence (white bars) of increasing concentration of ‘1’ added in the last 3 h before aphidicolin treatment. Results are presented as mean±SEM from two independent replicates. c) The presence of anaphase bridges, as shown in the representative images, was scored in DAPI-stained cells. The white bars indicate 10 μm.

For assay [3], the target named is T1, interaction between RAD52 and RPA proteins (Homo sapiens, UniProt P43351).
T1 construct: made in house
T1 sequence (P27694 whole entry partner, one chain of several): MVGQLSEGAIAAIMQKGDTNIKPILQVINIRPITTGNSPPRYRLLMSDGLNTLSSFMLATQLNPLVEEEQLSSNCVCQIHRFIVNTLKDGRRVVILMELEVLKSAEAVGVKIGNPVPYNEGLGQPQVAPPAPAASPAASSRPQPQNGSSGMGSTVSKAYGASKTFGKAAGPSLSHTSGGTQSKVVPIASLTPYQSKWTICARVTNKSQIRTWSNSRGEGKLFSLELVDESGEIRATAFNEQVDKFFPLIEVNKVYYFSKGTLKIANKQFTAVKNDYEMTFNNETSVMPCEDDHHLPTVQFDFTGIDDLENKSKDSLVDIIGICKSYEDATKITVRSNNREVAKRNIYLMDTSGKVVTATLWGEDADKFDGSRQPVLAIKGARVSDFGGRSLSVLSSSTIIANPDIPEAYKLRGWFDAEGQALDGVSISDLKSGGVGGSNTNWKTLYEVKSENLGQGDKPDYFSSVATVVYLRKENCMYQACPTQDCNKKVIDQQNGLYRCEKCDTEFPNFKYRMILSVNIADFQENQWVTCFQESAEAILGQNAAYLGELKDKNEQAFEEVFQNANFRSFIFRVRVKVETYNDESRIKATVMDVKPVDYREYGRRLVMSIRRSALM
T1 sequence (P15927 whole entry partner, one chain of several): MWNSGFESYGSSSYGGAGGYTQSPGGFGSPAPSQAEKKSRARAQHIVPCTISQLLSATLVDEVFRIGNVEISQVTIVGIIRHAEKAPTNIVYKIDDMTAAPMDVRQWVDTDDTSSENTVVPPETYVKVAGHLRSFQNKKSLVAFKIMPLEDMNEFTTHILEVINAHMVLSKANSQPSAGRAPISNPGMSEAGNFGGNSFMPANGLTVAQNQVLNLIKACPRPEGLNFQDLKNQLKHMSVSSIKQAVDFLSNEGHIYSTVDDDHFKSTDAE
T1 sequence (P35244 whole entry partner, one chain of several): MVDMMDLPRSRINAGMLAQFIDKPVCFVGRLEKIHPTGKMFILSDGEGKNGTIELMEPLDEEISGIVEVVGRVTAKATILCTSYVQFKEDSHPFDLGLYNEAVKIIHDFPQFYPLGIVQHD
The experiment in a line: Ni-NTA pull-down of RAD52 and RPA. The class given is binding. The settings on record: 3 μM RAD52, 3 μM RPA, 3 μM compound.

The next assay deals with T2, RAD52 (Homo sapiens, UniProt P43351).
T2 sequence (P43351 1-418): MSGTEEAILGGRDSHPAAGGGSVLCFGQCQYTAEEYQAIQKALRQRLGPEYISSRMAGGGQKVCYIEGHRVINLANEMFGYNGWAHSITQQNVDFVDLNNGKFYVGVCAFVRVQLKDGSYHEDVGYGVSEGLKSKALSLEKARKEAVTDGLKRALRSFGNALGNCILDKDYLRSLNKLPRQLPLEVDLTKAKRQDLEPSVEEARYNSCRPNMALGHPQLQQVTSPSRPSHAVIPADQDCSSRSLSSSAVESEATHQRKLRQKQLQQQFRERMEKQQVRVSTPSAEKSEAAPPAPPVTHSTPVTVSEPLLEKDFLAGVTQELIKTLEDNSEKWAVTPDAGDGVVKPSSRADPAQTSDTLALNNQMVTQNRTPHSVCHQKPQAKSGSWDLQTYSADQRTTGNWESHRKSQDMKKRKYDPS
The experiment in a line: WaterLOGSY NMR analysis of compound binding to RAD52. Also on record: made in house. The following applies: 20 or 40 μM compound, 3.3 μM RAD52. The protocol: In WaterLOGSY spectrum, if a compound binds to a protein, the compound will receive negative nuclear Overhauser effects (NOEs) due to the slow tumbling of the protein-compound complex, leading to a positive WaterLOGSY peak.
WaterLOGSY NMR analysis of the compound binding to RAD52 and RPA proteins: Compound binding to RAD52 and RPA proteins was analyzed using water-ligand observation with gradient spectroscopy (WaterLOGSY) NMR experiments (Dalvit et al., 2001, Dalvit et al., 2000). The WaterLOGSY spectra of compounds in the presence of RAD52 or RPA were acquired using a water NOE mixing time of 1 s and a T2 relaxation filter of 50 ms just before data acquisition to suppress the broad signals derived from protein. The protein buffer used in the experiments contains 10 mM Tris-d11, 75 mM KCl, 0.25 mM EDTA, pH 7.5, and 10% D20. All NMR data were acquired on a Bruker Avance II 800 MHz NMR spectrometer equipped with a sensitive cryoprobe and recorded at 25° C. The ^1H chemical shifts were referenced to 2,2-dimethyl-2-silapentane-5-sulfonate (DSS). NMR spectra were processed using NMR Pipe (Delaglio et al., 1995) and analysed using NMR View (Johnson and Blevins, 1994).

The next assay addresses T3, RAD52-dsDNA interaction (Homo sapiens, UniProt P43351).
T3 construct: made in house
T3 sequence (P43351 1-418): T2 sequence (P43351 1-418)
The assay can be described thus: FRET-based RAD52-dsDNA binding assay. The settings on record: 1 nM dsDNA, 10 nM RAD52. The source says:
These assays utilize two complementary single stranded 28-nucleotide-long substrates, which contain either Cy3 (T-28) or Cy5 (P-28) incorporated into the middle of the respective DNA strand. When the substrates are annealed by RAD52, the Cy3 and Cy5 dyes are separated by 3 base pairs and yield a high FRET signal (FIG. 2 Supplement 2). […] The annealing reactions were initiated by mixing two half reactions and observing the change in FRET over time in the presence of varying concentrations of small molecules. An increasing FRET value over time indicates formation of the dsDNA duplex which brings the two dyes in close proximity (FIG. 2 Supplement 2). Fitting the annealing data to a double exponential allowed us to calculate and compare the final extent of annealing at varying concentrations of each compound compared to RAD52 alone. We plotted the final extent of annealing vs the concentration of the compound and calculated an IC50 of annealing inhibition.
where FRET0 is the initial FRET value of RAD52-ssDNA complex in the absence of the compound and FRETmin is the FRET value at complete inhibition. FRET values were calculated as an average of three or more independent annealing reactions plotted against the concentration of the compound. […]

For `Oc1cc(O)c2c(c1)O[C@H](c1cc(O)c(O)c(O)c1)[C@H](O)C2` [Compound ‘1’, (−)-Epigallocatechin], the “Cell death after prolonged replication arrest” value in the assay with GM01604 cells [1] (BRCA2-depleted cells, HU 18 h) is “substantial increase in cell death”. This compound came in with a Cell death in the assay with GM01604 cells [1] (BRCA2-depleted cells, after replication stress, 1 μM compound) of around 80%. Besides, the “Cell death after HU+UCN01” value with GM01604 cells [1] (Ctrl siRNA cells, 1 μM compound) is on record as “potentiated the effect of the combined HU+UCN01 treatment”. Moreover, the Dead cells in the assay on GM01604 cells [1] (checkpoint-deficient, HU treated, 1 μM compound) is recorded as around 60%; in the assay with GM01604 cells [1] (untreated, 1 μM compound), “approximately 40%”. Further, in the assay with GM01604 cells [2], the “Effect on MUS81 activity (anaphase bridges)” value was “does not affect MUS81 activity”.
Take `O=C(O[C@@H]1Cc2c(O)cc(O)cc2O[C@@H]1c1cc(O)c(O)c(O)c1)c1cc(O)c(O)c(O)c1` [Compound 6, Epigallocatechin-3-monogallate]: the “Effect on the interaction between RAD52 and RPA proteins” value in assay [3] is listed as “no effect”. Besides, on RAD52, the “Binding to RAD52 by WaterLOGSY” value is given as “positive WaterLOGSY peaks”. The “Effect on the RAD52-dsDNA interaction” value at RAD52-dsDNA interaction was “able to displace dsDNA”.
